Measurements from US20060069110A1, “Substituted heterocyclic compounds and methods of use” (priority 2004, published 2006).
pIC50: −log10 of the molar value.

What follows are compounds tested on THP1 cells (LPS induced TNF release) (assay: Lipopolysaccharide-Activated THP1 Cell TNF Production Assay). Conditions: Homo sapiens, THP-1; THP1 cells, bacterial LPS, secreted TNF-α after 3 h at 37° C.; read-out: IC50 values in the THP1 cell assay (LPS induced TNF release).
Format: cell-based
Method: Lipopolysaccharide-Activated THP1 Cell TNF Production Assay
THP1 cells are resuspended in fresh THP1 media (RPMI 1640, 10% heat-inactivated FBS, 1×PGS, 1×NEAA, plus 30 μM βME) at a concentration of 1E6/mL. One hundred microliters of cells per well are plated in a polystyrene 96-well tissue culture. One microgram per mL of bacterial LPS is prepared in THP1 media and is transferred to the wells. Test compounds are dissolved in 100% DMSO and are serially diluted 3 fold in a polypropylene 96-well microtiter plate (drug plate). HI control and LO control wells contain only DMSO. One microliter of test compound from the drug plate followed by 10 μL of LPS are transferred to the cell plate. The treated cells are induced to synthesize and secrete TNF-α at 37° C. for 3 h. Forty microliters of conditioned media are transferred to a 96-well polypropylene plate containing 110 μL of ECL buffer (50 mM Tris-HCl pH 8.0, 100 mM NaCl, 0.05% Tween 20, 0.05% NaN3 and 1% FBS) supplemented with 0.44 nM MAB610 monoclonal Ab (R&D Systems), 0.34 nM ruthenylated AF210NA polyclonal Ab (R&D Systems) and 44 μg/mL sheep anti-mouse M280 Dynabeads (Dynal). After a 2 h incubation at RT with shaking, the reaction is read on the ECL M8 Instrument (IGEN Inc.). A low voltage is applied to the ruthenylated TNF-α immune complexes, which in the presence of TPA (the active component in Origlo), results in a cyclical redox reaction generating light at […]. The amount of secreted TNF-α in the presence of compound compared with that in the presence of DMSO vehicle alone (HI control) is calculated using the formula: % control (POC)=(cpd−average LO)/(average HI−average LO)*100. Data (consisting of POC and inhibitor concentration in μM) is fitted to a 4-parameter equation (y=A+((B−A)/(1+((×/C)ôD))), where A is the minimum y (POC) value, B is the maximum y (POC), C is the x (cpd concentration) at the point of inflection and D is the slope factor) using a Levenburg-Marquardt non-linear regression algorithm.

pIC50, ≥ 4.70:
C[C@@H](Cc1cccc(CN)c1)Nc1nccc(N(C)c2nc(N)cc(-c3ccccc3)n2)n1 [Example 8, (S)-N^4-(4-Amino-6-phenylpyrimidin-2-yl)-N^2-(1-(3-(aminomethyl)phenyl)propan-2-yl)-N^4-methylpyrimidine-2,4-diamine]
C[C@H](Nc1nccc(N(C)c2ccnc(-c3ccccc3)n2)n1)[C@@H]1CCC[C@H](CCN)C1 [Example 10, N^2-((S)-((1R,3S)-3-(2-Aminoethyl)cyclohexyl)ethyl)-N^4-methyl-N^4-(2-phenylpyrimidin-4-yl)pyrimidine-2,4-diamine]
C[C@H](N)C1CCCC(CCNc2nccc(N(C)c3ccnc(-c4ccccc4)n3)n2)C1 (stereo partly drawn) [Example 12, N^2-(2-(3-((S)-1-Aminoethyl)cyclohexyl)ethyl)-N^4-methyl-N^4-(2-phenylpyrimidin-4-yl)pyrimidine-2,4-diamine]
CN(c1ccnc(N[C@H]2CC[C@H](N)CC2)n1)c1ccnc(-c2ccccc2)n1 [Example 13, N^2-((1r,4r)-4-Aminocyclohexyl)-N^4-methyl-N^4-(2-phenylpyrimidin-4-yl)pyrimidine-2,4-diamine]
CN(c1ccnc(NCCc2ccccc2Cl)n1)c1ccnc(-c2ccccc2)n1 [Example 14, N^2-(2-Chlorophenethyl)-N^4-methyl-N^4-(2-phenylpyrimidin-4-yl)pyrimidine-2,4-diamine]
CN(c1ccnc(NCCc2cccnc2)n1)c1ccnc(-c2ccccc2)n1 [Example 15, N^4-Methyl-N^4-(2-phenylpyrimidin-4-yl)-N^2-(2-(pyridin-3-yl)ethyl)pyrimidine-2,4-diamine]
CN(c1ccnc(NC2CCNCC2)n1)c1ccnc(-c2ccccc2)n1 [Example 16, N^4-Methyl-N^4-(2-phenylpyrimidin-4-yl)-N^2-(piperidin-4-yl)pyrimidine-2,4-diamine]
C[C@H](Nc1nccc(N(C)c2ccnc(-c3ccccc3)n2)n1)c1cccc(CCC(=O)O)c1 [Example 18, (S)-3-(3-(1-(4-(Methyl(2-phenylpyrimidin-4-yl)amino)pyrimidin-2-ylamino)-ethyl)phenyl)propanoic acid]
C[C@H](Nc1nccc(N(C)c2ccnc(-c3ccccc3)n2)n1)c1cccc(CCN)c1 [Example 19, (S)-N^2-(1-(3-(2-Aminoethyl)phenyl)ethyl)-N^4-methyl-N^4-(2-phenylpyrimidin-4-yl)pyrimidine-2,4-diamine]
C[C@H](NC(=O)OC(C)(C)C)c1cccc(CCNc2nccc(N(C)c3ccnc(-c4ccccc4)n3)n2)c1 [Example 20, (S)-tert-Butyl 1-(3-(2-(4-(methyl(2-phenylpyrimidin-4-yl)amino)pyrimidin-2-yl-amino)ethyl)phenyl)ethylcarbamate]
C[C@H](N)c1cccc(CCNc2nccc(N(C)c3ccnc(-c4ccccc4)n3)n2)c1 [Example 21, (S)-N^2-(3-(1-Aminoethyl)phenethyl)-N^4-methyl-N^4-(2-phenylpyrimidin-4-yl)-pyrimidine-2,4-diamine]
CC(=O)N1CCC(Nc2nccc(N(C)c3ccnc(-c4ccccc4)n3)n2)CC1 [Example 22, 1-(4-(4-(Methyl(2-phenylpyrimidin-4-yl)amino)pyrimidin-2-ylamino)piperidin-1-yl)ethanone]
C[C@H](N)C(=O)N1CCC(Nc2nccc(N(C)c3ccnc(-c4ccccc4)n3)n2)CC1 [Example 23]
CC(=O)N[C@H]1CC[C@H](Nc2nccc(N(C)c3ccnc(-c4ccccc4)n3)n2)CC1 [Example 24, N-(4-(4-(Methyl(2-phenylpyrimidin-4-yl)amino)pyrimidin-2-ylamino)cyclohexyl)-acetamide]
C[C@H](N)C(=O)N[C@H]1CC[C@H](Nc2nccc(N(C)c3ccnc(-c4ccccc4)n3)n2)CC1 [Example 25, (S)-2-Amino-N-(4-(4-(methyl(2-phenylpyrimidin-4-yl)amino)pyrimidin-2-ylamino)cyclohexyl)propanamide]
CN(c1ccnc(NC(C)(C)CNC(=O)OC(C)(C)C)n1)c1ccnc(-c2ccccc2)n1 [Example 26, tert-Butyl 2-methyl-2-(4-(methyl(2-phenylpyrimidin-4-yl)amino)pyrimidin-2-yl-amino)propylcarbamate]
CN(c1ccnc(NC(C)(C)CN)n1)c1ccnc(-c2ccccc2)n1 [Example 27, N^2-(1-Amino-2-methylpropan-2-yl)-N^4-methyl-N^4-(2-phenylpyrimidin-4-yl)-pyrimidine-2,4-diamine]
C[C@H](N)c1ccc(CCNc2nccc(N(C)c3ccnc(-c4ccccc4)n3)n2)cc1 [Example 28, (S)-N^2-(4-(1-Aminoethyl)phenethyl)-N^4-methyl-N^4-(2-phenylpyrimidin-4-yl)-pyrimidine-2,4-diamine]
C[C@@H](Cc1cccc(C(C)(C)N)c1)Nc1nccc(N(C)c2ccnc(-c3ccccc3)n2)n1 [Example 29, (S)-N^2-(1-(3-(2-Aminopropan-2-yl)phenyl)propan-2-yl)-N^4-methyl-N^4-(2-phenylpyrimidin-4-yl)pyrimidine-2,4-diamine]
CN(c1ccnc(N[C@@H](CCO)c2ccccc2)n1)c1ccnc(-c2ccccc2)n1 [Example 30, (S)-3-(4-(Methyl(2-phenylpyrimidin-4-yl)amino)pyrimidin-2-ylamino)-3-phenylpropan-1-ol]
CN(c1ccnc(N[C@H](CCO)c2ccccc2)n1)c1ccnc(-c2ccccc2)n1 [Example 31, (R)-3-(4-(Methyl(2-phenylpyrimidin-4-yl)amino)pyrimidin-2-ylamino)-3-phenylpropan-1-ol]
Cc1cc(N(C)c2ccnc(-c3ccccc3)n2)nc(NC2CCC(N)CC2)n1 (stereo not shown) [Example 33, N2-((1r,4r)-4-Aminocyclohexyl)-N4,6-dimethyl-N4-(2-phenylpyrimidin-4-yl)pyrimidine-2,4-diamine]
Cc1cc(N(C)c2ccnc(-c3ccccc3)n2)nc(N[C@@H](C)Cc2cccc(CNC(=O)[C@H](C)N)c2)n1 [Example 35, (S)-N-((S)-3-((S)-2-(4-Methyl-6-(methyl(2-phenylpyrimidin-4-yl)amino)pyrimidin-2-ylamino)propyl)benzyl)-2-aminopropanamide]
Cc1cc(N(C)c2ccnc(-c3ccccc3)n2)nc(N[C@@H](C)Cc2cccc([C@@H](C)N)c2)n1 [Example 36, N^2-((S)-1-(3-((R)-1-Aminoethyl)phenyl)propan-2-yl)-N^4,6-dimethyl-N^4-(2-phenylpyrimidin-4-yl)pyrimidine-2,4-diamine]
CN(c1ccnc(N[C@H](Cc2ccccc2)C(N)=O)n1)c1ccnc(-c2ccccc2)n1 [Example 39]
C[C@H](N)c1cccc(C[C@H](C)Nc2nccc(N(C)c3ccnc(-c4ccccc4)n3)n2)c1 [Example 40, N^2-((S)-1-(3-((S)-1-Aminoethyl)phenyl)propan-2-yl)-N^4-methyl-N^4-(2-phenyl-pyrimidin-4-yl)pyrimidine-2,4-diamine]
C[C@@H](Cc1cc(C#N)ccc1Cl)Nc1nccc(N(C)c2ccnc(-c3ccccc3)n2)n1 [Example 41, (S)-4-Chloro-3-(2-(4-(methyl(2-phenylpyrimidin-4-yl)amino)pyrimidin-2-ylamino)-propyl)benzonitrile]
C[C@@H](Cc1cc(CN)ccc1Cl)Nc1nccc(N(C)c2ccnc(-c3ccccc3)n2)n1 [Example 42, (S)-N^2-(1-(5-(Aminomethyl)-2-chlorophenyl)propan-2-yl)-N^4-methyl-N^4-(2-phenyl-pyrimidin-4-yl)pyrimidine-2,4-diamine]
CN(c1ccnc(NC2CCN(C(=O)CN)CC2)n1)c1ccnc(-c2ccccc2)n1 [Example 43, 2-Amino-1-(4-(4-(methyl(2-phenylpyrimidin-4-yl)amino)pyrimidin-2-ylamino)-piperidin-1-yl)ethanone]
C[C@@H](N)CC(=O)N1CCC(Nc2nccc(N(C)c3ccnc(-c4ccccc4)n3)n2)CC1 [Example 44, (R)-3-Amino-1-(4-(4-(methyl(2-phenylpyrimidin-4-yl)amino)pyrimidin-2-ylamino)-piperidin-1-yl)butan-1-one]
CN(c1ccnc(N[C@H](Cc2ccccc2)C(=O)O)n1)c1ccnc(-c2ccccc2)n1 [Example 45, (R)-2-(4-(Methyl(2-phenylpyrimidin-4-yl)amino)pyrimidin-2-ylamino)-3-phenyl-propanoic acid]
